# According to patent US20060223779A1, “Method of screening for inhibitors of human Fatty Acid-CoA Ligase 4” (priority 2000, published 2006):
# Assays:
# COX-2 stable 293 cells = assay: Apoptosis in stably transfected 293 cells with inducible COX-2 over-expression; format: cell-based, human; conditions: for effect on the prevention of apoptosis by COX-2: AA 300 μM, COX-2 over-expressing cells; for reduction of fatty acid-induced apoptosis by inducing COX-2 over-expression: COX-2 over-expression induced, n=3
# Experimental: (A) Conditional expression level of FACL4 and COX-2 in stably transfected lines. Cells were treated with (+) or without (−) ponasterone (1 μg/ml) for 48 hr, and Western blotting was carried out with anti-FACL4 and anti-COX-2 antibodies, respectively. The loading was normalized with an anti-β actin antibody (ICN Biomedicals). […] The 293 cells stably transfected with an empty control vector (Ctl), FACL4 cDNA, COX-2 cDNA, and both FACL4 and COX-2 cDNAs were uninduced (−Pon) or induced for over-expression (+Pon) as in A. AA (300 μM) was added after 24 hr of induction and apoptosis was determined 44 hr later. […] The plot is a comparison of the relative apoptosis levels among the stable lines and is representative of three independent experiments. The values shown are the averages of triplicate determinations. […] Cells were uninduced (−Pon) or induced for over-expression as above. […] COX inhibitors were administered 6 hr later as indicated. AA (300 μM) was then added after 2 hr and apoptosis was determined 44 hr later. The plot is prepared as in B, and is a representative result from three independent experiments, in which triplicates were performed. Wt=wild-type, Mut=mutant, Met=50 μM 6-methoxy-2-naphthyl acetic acid, Indo=10 μM indomethacin. […] The COX-2, FACL4/COX-2 stable and control cells carrying an empty vector were induced for 48 hr, washed and incubated with 20 μM AA at 37° C. for 30 min. The amount of PGE2 synthesized was determined by ELISA. […] (E) The levels of free AA in the stable lines. The [^3H]
# (§1) Cell Death Detection ELISA. Cells were plated on 96 well-plates at 1×10^4 cells per well. AA was applied and apoptotic death was determined after 44 hr with the Cell Death Detection ELISA (Boehringer Mannheim).
# Stable cell lines. The ecdysone inducible system (Invitrogen) was used to construct stable lines over-expressing human FACL4, COX-2, COX-2 mutant, and both FACL4 and COX-2. […] The cDNAs were cloned into pIND(SP1) (Neomycin^r). The cDNA constructs, or the empty vector pIND(SP1) were transfected into EcR293 cells, which were then selected in 400 μg/ml geneticin and 400 μg/ml zeocin. […] The double stable line was generated by stably transfecting the COX-2 stable cells with another pIND(SP1)-FACL4 cDNA construct, in which the FACL4 cDNA was cloned into a pIND(SP1) (hygromycin^r) vector. The cells were selected in 400 μg/ml geneticin, 400 μg/ml zeocin, and 50 μg/ml hygromycin B. The positive colonies were screened as described above.
# [1] = test system: FACL4/COX-2 double stable cells; assay: Cell survival of FACL4/COX-2 double stable cells after TNFα or A23187; format: cell-based, human
# Experimental: FIG. 5: Enzymatic “sinks” for free arachidonic acid protect against TNFα_ and calcium ionophore_mediated cell killing. (A) Determination of cell survival. The cells were induced (+Pon) or not (−Pon) for 24 hr, and TNFα (1 ng/ml) or the calcium ionophore A23187 (5 μM) was added, and the cells were incubated for another 72 hr. The surviving fraction was determined and is plotted relative to that of the same line without TNFα or A23187 treatment. Ctl denotes control cells harboring an empty vector, while FACL4/COX-2 denotes the double stable line. (B) Measurement of the free AA. The FACL4/COX-2 cells were prelabeled with [^3H] AA, induced, and stimulated with A23187 (5 μM), and [^3H] AA release was measured at the indicated time intervals. The values are from one experiment that is representative of four independent determinations.
# Stable cell lines. The ecdysone inducible system (Invitrogen) was used to construct stable lines over-expressing human FACL4, COX-2, COX-2 mutant, and both FACL4 and COX-2. […] The cDNAs were cloned into pIND(SP1) (Neomycin^r). The cDNA constructs, or the empty vector pIND(SP1) were transfected into EcR293 cells, which were then selected in 400 μg/ml geneticin and 400 μg/ml zeocin. A number of single colonies were screened for over-expression of FACL4, COX-2 wild type, and COX-2 mutant by immunoblotting against anti-FACL4 (See Y. Cao et al., 467 FEBS Lett. 263-267 (2000)), and anti-COX-2 antibodies (a gift from Dr. Jacques Maclouf), and by measurement of the CoA ligase activity for FACL4 (See D. B. Wilson et al., 257 J. Biol. Chem. 3510-3515 (1992)), or the PGE2 secretion for COX-2 wild type (ELISA assay, Assay Design, Inc.). The double stable line was generated by stably transfecting the COX-2 stable cells with another pIND(SP1)-FACL4 cDNA construct, in which the FACL4 cDNA was cloned into a pIND(SP1) (hygromycin^r) vector. The cells were selected in 400 μg/ml geneticin, 400 μg/ml zeocin, and 50 μg/ml hygromycin B. The positive colonies were screened as described above.
# (§2) Cell survival. Cell viability was determined with the crystal violet staining (See M. Hayakawa et al., 268 J. Biol. Chem. 11290-11295 (1993).
# 293 cells [2] = assay: Cell survival (crystal violet staining) in 293 cells; format: cell-based, human; conditions: not shown
# Experimental: (§3) FIG. 3: Arachidonic acid induces apoptosis via activation of caspase 3. (A) Determination of cell survival. AA was added to 293 cells at the indicated concentrations and the surviving fraction of cells was determined after 44 hr. The values shown are relative to the viability of cells that were not exposed to AA. (B) Increased apoptosis in cells exposed to AA. Cells were treated with AA (300 μM) or palmitic acid (300 μM) under the same conditions as in A, and then apoptosis was detected with an ELISA. The mean values from triplicate determinations are shown. […] The 293 cells were treated with AA (300 μM; +AA) or vehicle alone (−AA) for 44 hr. The nuclei were stained with DAPI, and DNA strand breaks in individual cells were detected with a fluorescent TUNEL assay. The upper panels are the same field of cells (−AA) photographed under UV (left panels) and FITC filters (right panels). The lower panels illustrate apoptotic cells (+AA). The magnification is 80×. (D) Immunostaining with an anti-active caspase 3 antibody. Upper panels, control cells (−AA); lower panels, cells exposed to 300 μM AA. Left panels, DAPI staining; right panels, immunostaining with an antibody selective for active caspase 3. The magnification is 100×. […] The 293 cells were preincubated with caspase inhibitors (including DMQD, a caspase 3 inhibitor, and YVAD, a caspase 1 and 4 inhibitor (Peptide Institute)) for 1 hr at the indicated concentrations, AA (300 μM) was added, and apoptosis was determined 44 hr later. The values represent the means from triplicate determinations.
# as §2
# 293 cells [3] = assay: Apoptosis by Cell Death Detection ELISA in 293 cells; format: cell-based, human; conditions: for effect of antioxidant pretreatment on AA-induced apoptosis: antioxidant 1 hr, then AA 200 μM
# Experimental: as §3, §1
# [4] = test system: colon and prostate cancer cells; conditions: by down-regulating Bcl-2; literature reports; cited from earlier work
# HT 29 cells = assay: Apoptosis by Cell Death ELISA in HT 29 cells; format: cell-based
# Experimental: HT 29 Cells were plated in 96 wells. Triacsin C and AA were added (in A), or triacsin C with either indomethacin (Indo) or sulindac (Sul) (in B) were added at the indicated concentrations. Indomethacin and sulindac are both cyclooxygenase (COX) inhibitors. Apoptosis was determined by Cell Death ELISA 44 hr later (A), and 72 hr later (B), respectively. […] The values shown are the means of triplicate determinations.
# as §1
molecule,measurement,setting,value
COc1ccc2cc(CC(=O)O)ccc2c1 [6-methoxy-2-naphthylacetic acid],effect on the prevention of apoptosis by COX-2,COX-2 stable 293 cells; 50 μM,abolished the prevention of apoptosis by COX-2
same,effect on the improvement in cell survival in the double stable cells,"[1]; double stable cells, not shown",partially abolished the improvement in cell survival
CCCCC[C@H](O)/C=C/C=C\C/C=C\C/C=C\CCCC(=O)O [15-HETE],effect on cell survival,293 cells [2]; 293 cells,did not affect cell survival
"CC/C=C\C/C=C\C/C=C\C/C=C\C/C=C\C/C=C\CCC(=O)O [DHA, docosahexaenoic acid]",fold-increase in apoptosis after fatty acid treatment,COX-2 stable 293 cells; 100 μM,15.1 fold
same,reduction of fatty acid-induced apoptosis by inducing COX-2 over-expression,COX-2 stable 293 cells,18.5%
"CC/C=C\C/C=C\C/C=C\C/C=C\C/C=C\CCCC(=O)O [EPA, eicosapentaenoic acid]",fold-increase in apoptosis after fatty acid treatment,COX-2 stable 293 cells; 200 μM,9.1 fold
same,reduction of fatty acid-induced apoptosis by inducing COX-2 over-expression,COX-2 stable 293 cells,34.0%
CC(Cc1ccc(O)c(O)c1)C(C)Cc1ccc(O)c(O)c1 (stereo not shown) [NDGA],induction of apoptosis,293 cells [3]; 293 cells,induced apoptosis
CS(=O)(=O)Nc1ccc([N+](=O)[O-])cc1OC1CCCCC1 [NS398],reported effect on apoptosis,[4],enhance the induction of apoptosis
CCCCC[C@H](O)/C=C/[C@H]1[C@H](O)CC(=O)[C@@H]1C/C=C\CCCC(=O)O [PGE2],cell viability in the presence of exogenous AA,293 cells [2]; 50 μM added directly,did not improve cell viability
CCCCC[C@H](O)/C=C/[C@H]1C(=O)C=C[C@@H]1C/C=C\CCCC(=O)O [PGJ2],cell viability in the presence of exogenous AA,293 cells [2]; 5 μM added directly,did not improve cell viability
CS(=O)(=O)c1ccc(-n2nc(C(F)(F)F)cc2-c2ccc(F)cc2)cc1 [SC-58125],reported effect on apoptosis,[4],enhance the induction of apoptosis
O=C1O[C@H]([C@@H](O)CO)C(O)=C1O [ascorbic acid],effect of antioxidant pretreatment on AA-induced apoptosis,"293 cells [3]; 293 cells, 44 hr",apoptosis decreased significantly
COc1ccc2c(c1)c(CC(=O)O)c(C)n2C(=O)c1ccc(Cl)cc1 [indomethacin],effect on the prevention of apoptosis by COX-2,COX-2 stable 293 cells; 10 μM,did not alter the apoptosis response
CCCCCCCC/C=C\CCCCCCCC(=O)O [oleic acid],induction of apoptosis by other fatty acids compared with AA,293 cells [3],did not cause the same response
CCCCCCCCCCCCCCCC(=O)O [palmitic acid],induction of apoptosis by other fatty acids compared with AA,293 cells [3],did not cause the same response
same,apoptosis (mono- and oligo-nucleosomes) over the control,"293 cells [3]; 293 cells, 300 μM, 44 hr",no increase
same,fold-increase in apoptosis after fatty acid treatment,COX-2 stable 293 cells; 200 μM,4.2 fold
same,reduction of fatty acid-induced apoptosis by inducing COX-2 over-expression,COX-2 stable 293 cells,8.1%
CCC/C=C/C/C=C/C=C/C=N/NN=O [triacsin C],cell death with triacsin C alone,HT 29 cells; 2 μM,did not cause cell death
same,increase in apoptosis compared to control cells,HT 29 cells; 10 μM,9 fold
same,induction of apoptosis,HT 29 cells; Cell Death ELISA,induced apoptosis in a concentration-dependent manner
same,increase of the apoptosis-inducing effect of triacsin C in the presence of sulindac,"HT 29 cells; plus sulindac, 72 hr",4-8 fold
same,apoptosis with triacsin C when indomethacin was added,"HT 29 cells; triacsin C 2 μM plus indomethacin, 72 hr",induced apoptosis
same,sensitization to AA-induced apoptosis,"HT 29 cells; triacsin C plus AA, 44 hr",sensitized cells to AA-induced apoptosis
Cc1c(C)c2c(c(C)c1O)CCC(C)(C(=O)O)O2 (stereo not shown) [trolox],effect of antioxidant pretreatment on AA-induced apoptosis,"293 cells [3]; 293 cells, 44 hr",apoptosis decreased significantly
TNFα,"surviving fraction, induced cells","[1]; FACL4/COX-2 double stable cells induced with ponasterone, TNFα 1 ng/ml or A23187 5 μM, 72 hr, n=3",70.5%
same,"surviving fraction, uninduced cells","[1]; FACL4/COX-2 double stable cells without induction, TNFα 1 ng/ml or A23187 5 μM, 72 hr, n=3",43.5%
apo-transferrin: a membrane-impermeable antioxidant,effect of antioxidant pretreatment on AA-induced apoptosis,"293 cells [3]; 293 cells, 44 hr",did not alter AA-induced apoptosis
tocopherol,effect of antioxidant pretreatment on AA-induced apoptosis,"293 cells [3]; 293 cells, 44 hr",apoptosis decreased significantly
z-YVAD-fmk,blocking of AA-induced apoptosis by caspase inhibitor,"293 cells [3]; 293 cells preincubated 1 hr with inhibitor, AA 300 μM, 44 hr",not
